The data set concerns CCRIS mutagenicity, Ames/micronucleus/aberration tests. Briefly: CCRIS mutagenicity studies.

The structures appear in SMILES notation. Active and inactive are the calls of the source. How the calls were made is not given here.

In the case of `C[C-](C)[N+](=O)[O-]`, the mutagenic call runs as follows: (Test System: AMES SALMONELLA TYPHIMURIUM, Strain/Indicator: TA98, Metabolic Activation: NONE, Method: PREINCUBATION) “active; positive”; (Test System: AMES SALMONELLA TYPHIMURIUM, Strain/Indicator: TA98, Metabolic Activation: RAT, LIVER, S-9, AROCLOR 1254, Method: PREINCUBATION) “active; positive”; (Test System: AMES SALMONELLA TYPHIMURIUM, Strain/Indicator: TA100, Metabolic Activation: NONE, Method: PREINCUBATION) “active; positive”; (Test System: AMES SALMONELLA TYPHIMURIUM, Strain/Indicator: TA100, Metabolic Activation: RAT, LIVER, S-9, AROCLOR 1254, Method: PREINCUBATION) “active; positive”; (Test System: AMES SALMONELLA TYPHIMURIUM, Strain/Indicator: TA100, Metabolic Activation: RAT, LIVER, S-9, AROCLOR, Method: PREINCUBATION) “active; positive”; (Test System: AMES SALMONELLA TYPHIMURIUM, Strain/Indicator: TA102, Metabolic Activation: NONE, Method: PREINCUBATION) “active; positive”. For the same compound, the mutagenic call by setting is: (Test System: AMES SALMONELLA TYPHIMURIUM, Strain/Indicator: TA102, Metabolic Activation: RAT, LIVER, S-9, AROCLOR 1254, Method: PREINCUBATION) “active; positive”; (Test System: AMES SALMONELLA TYPHIMURIUM, Strain/Indicator: TA102, Metabolic Activation: RAT, LIVER, S-9, AROCLOR, Method: PREINCUBATION) “active; positive”; (Test System: UDS CHINESE HAMSTER V-79 CELLS, Metabolic Activation: NONE, Method: AUTORADIOGRAPHY) “active; positive”; (Test System: UDS CHINESE HAMSTER V-79 CELLS, Strain/Indicator: V-79-MZ/CYTIDINE INCORPORATION, Metabolic Activation: NONE, Method: AUTORADIOGRAPHY) “inactive; negative”; (Test System: UDS CHINESE HAMSTER V-79 CELLS, Strain/Indicator: V-79-RHST20/CYTIDINE INCORPORATION, Metabolic Activation: NONE, Method: AUTORADIOGRAPHY) “inactive; negative”; (Test System: UDS CHINESE HAMSTER V-79 CELLS, Strain/Indicator: V-79-RHSTA/CYTIDINE INCORPORATION, Metabolic Activation: NONE, Method: AUTORADIOGRAPHY) “inactive; negative”. The mutagenic call (Test System: UDS CHINESE HAMSTER V-79 CELLS, Strain/Indicator: V-79-RPST-IV/CYTIDINE INCORPORATION, Metabolic Activation: NONE, Method: AUTORADIOGRAPHY) was “active; positive”; the mutagenic call (Test System: UDS HUMAN HEPATOCYTES, Strain/Indicator: THY INCORP, Metabolic Activation: NONE, Method: AUTORADIOGRAPHY) is “active; positive”; the mutagenic call (Test System: UDS MOUSE HEPATOCYTES, Strain/Indicator: THY INCORP, Metabolic Activation: NONE, Method: AUTORADIOGRAPHY) was “active; positive”; the mutagenic call (Test System: UDS RAT HEPATOCYTES, Strain/Indicator: THY INCORP, Metabolic Activation: NONE, Method: AUTORADIOGRAPHY) is “active; positive”.

Source of the values: PubChem BioAssay AID1259407 (Chemical Carcinogenesis Research Information System (CCRIS), 2018).
